Experimental findings from patent publication US20060183759A1, “Tissue transglutaminase inhibitors” (priority 2004, published 2006) are described below.

Molecules are shown by their SMILES. Like-named read-outs stand apart in the source and are kept apart here.

The target of assay [1] is T1, transglutaminase 2 (TGase 2) (Homo sapiens, UniProt P21980).
T1 sequence (P21980 1-687): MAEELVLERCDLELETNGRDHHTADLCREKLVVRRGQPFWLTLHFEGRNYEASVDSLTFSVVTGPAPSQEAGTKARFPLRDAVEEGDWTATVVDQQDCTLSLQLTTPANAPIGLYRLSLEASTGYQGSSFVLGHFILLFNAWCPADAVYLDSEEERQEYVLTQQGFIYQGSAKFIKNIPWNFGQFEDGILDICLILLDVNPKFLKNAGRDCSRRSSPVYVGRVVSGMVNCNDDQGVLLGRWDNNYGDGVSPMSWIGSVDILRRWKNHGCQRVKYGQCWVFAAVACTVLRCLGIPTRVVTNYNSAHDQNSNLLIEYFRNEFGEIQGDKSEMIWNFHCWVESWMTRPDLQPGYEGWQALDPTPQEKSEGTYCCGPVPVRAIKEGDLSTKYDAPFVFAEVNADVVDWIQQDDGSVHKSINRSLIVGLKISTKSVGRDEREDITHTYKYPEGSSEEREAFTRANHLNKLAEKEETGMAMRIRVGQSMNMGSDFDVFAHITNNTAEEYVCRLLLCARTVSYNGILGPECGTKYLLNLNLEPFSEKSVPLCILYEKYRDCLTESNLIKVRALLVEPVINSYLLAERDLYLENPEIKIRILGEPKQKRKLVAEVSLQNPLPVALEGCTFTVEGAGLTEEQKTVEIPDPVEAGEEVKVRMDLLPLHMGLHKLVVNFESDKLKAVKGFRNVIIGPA
In words: TGase 2 transpeptidase fluorescence assay: incorporation of KXD into N,N-dimethylated-casein (Std and FPC formats). Format: biochemical. Particulars: for TGase 2 inhibitory activity, SAR comment in words (relative to parent compound): qualitative comparison. On the procedure: Transpeptidase activity was monitored as the increase in fluorescence intensity (FI) that accompanies incorporation of the dansylated Lys derivative, α-N-Boc-Lys-CH2-CH2-dansyl (KXD), into the protein substrate, N,N-dimethylated-casein (NMC).
Therefore, a method was used in which full progress curves (FPC) were recorded for the TGase-catalyzed reaction of KXD with NMC in the presence of inhibitor (Table 1-4). Reactions were initiated by enzyme addition to a solution of substrate and inhibitor. […] From such progress curves, IC50 values were calculated using the following equation: IC50=[I]/{(vc/vss)−1}. Progress curves recorded at several inhibitor concentrations were used to determine FPC IC50 values (Table 1-4).

For assay [2], the target named is T1, transglutaminase 2 (TGase 2). The description is as above. Type of assay: biochemical. Particulars: standard format (Std): reactions terminated after 60 min, FI recorded, four-parameter fit.
[3] abbreviates: full progress curves (FPC), IC50=[I]/{(vc/vss)−1}, from steady-state velocity, read-out: IC50 (μM, FPC).
Setting [4] is: summary of FPC values, read-out: FPC IC50 values.

Broadly, the IC50 is the concentration that inhibits the measured activity by half. `NNC(=O)CSc1nc2ccc(-c3ccccc3)cc2c(=O)n1-c1cccc(F)c1` [986-04, [3-(3-Fluorophenyl)-4-oxo-6-phenyl-3,4-dihydroquinazolin-2-ylsulfanyl]acetic acid hydrazide]: the IC50 in assay [1] (setting [3]) turned out to be 1.5 µM. The “TGase 2 inhibitory activity, SAR comment in words (relative to parent compound)” value in assay [1] is “Activity was partly restored”. In the case of `NNC(=O)CNc1nc2scc(-c3ccccc3)c2c(=O)n1-c1ccccc1` [986-05, (4-Oxo-3,5-diphenyl-3,4-dihydrothieno[2,3-d]pyrimidin-2-ylamino)acetic acid hydrazide], the IC50 in assay [1] (setting [3]) came out at 3.7 µM. Further, the “TGase 2 inhibitory activity, SAR comment in words (relative to parent compound)” value in assay [1] is “decreased activity”. With `CN(CC(=O)NN)c1nc2scc(-c3ccccc3)c2c(=O)n1-c1ccccc1` [986-06, [Methyl-(4-oxo-3,5-diphenyl-3,4-dihydrothieno[2,3-d]pyrimidin-2-yl) -amino]acetic acid hydrazide], the IC50 in assay [2] is greater than 20 µM. With `Cn1c(SCC(=O)NN)nc2scc(-c3ccccc3)c2c1=O` [986-10, (3-Methyl-4-oxo-5-phenyl-3,4-dihydrothieno[2,3-d]pyrimidin-2-ylsulfanyl)acetic acid hydrazide], in assay [2], the midpoint of inhibition, the IC50, lay at 8.4 µM. Same read-out and setting: in the case of `Cc1csc2nc(SCC(=O)NN)n(-c3ccc(F)cc3)c(=O)c12` [986-11, [3-(4-Fluorophenyl)-5-methyl-4-oxo-3,4-dihydrothieno[2,3-d]pyrimidin-2-ylsulfanyl]acetic acid hydrazide] it was 6.3 µM; in that of `NNC(=O)CSc1nc2scc(-c3ccccc3)c2c(=O)n1Cc1ccccc1` [986-14, (3-Benzyl-4-oxo-5-phenyl-3,4-dihydrothieno[2,3-d]pyrimidin-2-ylsulfanyl)acetic acid hydrazide], 2.3 µM. On the same count and under the same terms, in the case of `COc1ccc(-n2c(SCC(=O)NN)nc3scc(-c4ccccc4)c3c2=O)cc1` [986-15, [3-(4-Methoxyphenyl)-4-oxo-5-phenyl-3,4-dihydrothieno[2,3-d]pyrimidin-2-ylsulfanyl]acetic acid hydrazide] it was 2.1 µM; in that of `NNC(=O)CSc1nc2scc(-c3ccccc3)c2c(=O)n1C1CCCCC1` [986-17, (3-Cyclohexyl-4-oxo-5-phenyl-3,4-dihydrothieno[2,3-d]pyrimidin-2-ylsulfanyl)acetic acid hydrazide], 2.6 µM.

In assay [2], `COc1ccccc1-n1c(SCC(=O)NN)nc2scc(-c3ccccc3)c2c1=O` [986-20, [3-(2-Methoxyphenyl)-4-oxo-5-phenyl-3,4-dihydrothieno[2,3-d]pyrimidin-2-ylsulfanyl]acetic acid hydrazide] registered an IC50 of 2 µM. On the same count and under the same terms, as for `NNC(=O)CSc1nc2scc(-c3ccccc3)c2c(=O)n1-c1ccccc1Cl` [986-23, [3-(2-Chlorophenyl)-4-oxo-5-phenyl-3,4-dihydrothieno[2,3-d]pyrimidin-2-ylsulfanyl]acetic acid hydrazide], the figure is 1.8 µM; as for `NNC(=O)CSc1nc2scc(-c3ccccc3)c2c(=O)n1-c1cccc(Cl)c1` [986-24, [3-(3-Chlorophenyl)-4-oxo-5-phenyl-3,4-dihydrothieno[2,3-d]pyrimidin-2-ylsulfanyl]acetic acid hydrazide], 1.5 µM; as for `NNC(=O)CSc1nc2scc(-c3ccccc3)c2c(=O)n1-c1ccc(Cl)cc1` [986-25, [3-(4-Chlorophenyl)-4-oxo-5-phenyl-3,4-dihydrothieno[2,3-d]pyrimidin-2-ylsulfanyl]acetic acid hydrazide], 1.8 µM. Consider `COc1ccccc1-c1csc2nc(SCC(=O)NN)n(-c3cccc(F)c3)c(=O)c12` [986-31, [3-(3-Fluorophenyl)-5-(2-methoxyphenyl)-4-oxo-3,4-dihydrothieno[2,3-d]pyrimidin-2-ylsulfanyl]acetic acid hydrazide], for which the IC50 in assay [1] (setting [3]) is 0.14 µM; in assay [1] (setting [4]), less than 0.16 µM. Take `COc1ccc(-c2csc3nc(SCC(=O)NN)n(-c4cccc(F)c4)c(=O)c23)cc1` [986-33, [3-(3-Fluorophenyl)-5-(4-methoxyphenyl)-4-oxo-3,4-dihydrothieno[2,3-d]pyrimidin-2-ylsulfanyl]acetic acid hydrazide]: in assay [1] (setting [3]), the concentration for half-maximal inhibition (IC50) stood at 0.28 µM.

In assay [2], `NNC(=O)CSc1nc2scc(-c3ccccc3O)c2c(=O)n1-c1cccc(F)c1` [986-34, [3-(3-Fluorophenyl)-5-(2-hydroxyphenyl)-4-oxo-3,4-dihydrothieno[2,3-d]pyrimidin-2-ylsulfanyl]acetic acid hydrazide] showed an IC50 of 1.4 µM. Turning to `CC(C)c1csc2nc(SCC(=O)NN)n(-c3cccc(F)c3)c(=O)c12` [986-36, [3-(3-Fluorophenyl)-5-isopropyl-4-oxo-3,4-dihydrothieno[2,3-d]pyrimidin-2-ylsulfanyl]acetic acid hydrazide], the half-maximal inhibitory concentration (IC50) in assay [1] (setting [3]) was determined as 0.23 µM. For the same compound, the “TGase 2 inhibitory activity, SAR comment in words (relative to parent compound)” value in assay [1] is “no loss in activity”. Turning to `NNC(=O)CSc1nc2scc(-c3ccccc3F)c2c(=O)n1-c1cccc(F)c1` [986-37, [3-(3-Fluorophenyl)-5-(2-fluorophenyl)-4-oxo-3,4-dihydrothieno[2,3-d]pyrimidin-2-ylsulfanyl]acetic acid hydrazide], the IC50 in assay [1] (setting [3]) was 0.14 µM; in assay [1] (setting [4]), less than 0.16 µM.

Take `NNC(=O)CSc1nc2scc(-c3cccc(F)c3)c2c(=O)n1-c1cccc(F)c1` [986-38, [3,5-Bis-(3-fluorophenyl)-4-oxo-3,4-dihydrothieno[2,3-d]pyrimidin-2-ylsulfanyl]acetic acid hydrazide]: the concentration for half-maximal inhibition (IC50) in assay [1] (setting [3]) amounted to 0.29 µM. Consider `NNC(=O)CSc1nc2sc(Cl)c(-c3ccccc3F)c2c(=O)n1-c1cccc(F)c1` [986-39, [6-Chloro-3-(3-fluorophenyl)-5-(2-fluorophenyl)-4-oxo-3,4-dihydrothieno[2,3-d]pyrimidin-2-ylsulfanyl]acetic acid hydrazide], for which the IC50 in assay [1] (setting [3]) was 0.13 µM; in assay [1] (setting [4]), less than 0.16 µM. Besides, in assay [1], the “TGase 2 inhibitory activity, SAR comment in words (relative to parent compound)” value was “increased activity”. Turning to `Cc1sc2nc(SCC(=O)NN)n(-c3cccc(F)c3)c(=O)c2c1-c1ccccc1F` [986-40, [3-(3-Fluorophenyl)-5-(2-fluorophenyl)-6-methyl-4-oxo-3,4-dihydrothieno[2,3-d]pyrimidin-2-ylsulfanyl]acetic acid hydrazide], the IC50 in assay [1] (setting [3]) is 0.15 µM; in assay [1] (setting [4]) it was less than 0.16 µM. For the compound `CC(C)c1sc2nc(SCC(=O)NN)n(-c3cccc(F)c3)c(=O)c2c1-c1ccccc1F` [986-41, [3-(3-Fluorophenyl)-5-(2-fluorophenyl)-6-isopropyl-4-oxo-3,4-dihydrothieno[2,3-d]pyrimidin-2-ylsulfanyl]acetic acid hydrazide], the IC50 in assay [1] (setting [3]) stood at 0.9 µM. Further, the “TGase 2 inhibitory activity, SAR comment in words (relative to parent compound)” value in assay [1] is reported as “detrimental”. `NNC(=O)CSc1nc2sc3c(c2c(=O)n1-c1cccc(F)c1)CCCC3` [986-42, [3-(3-Fluorophenyl)-4-oxo-3,4,5,6,7,8-hexahydrobenzo[4,5]thieno[2,3-d]pyrimidin-2-ylsulfanyl]acetic acid hydrazide]: the IC50 in assay [1] (setting [3]) turned out to be 0.45 µM. Still for that read-out and setting: as for `CC1CCCc2sc3nc(SCC(=O)NN)n(-c4cccc(F)c4)c(=O)c3c21` (stereo not drawn) [986-43, [3-(3-Fluorophenyl)-5-methyl-4-oxo-3,4,5,6,7,8-hexahydrobenzo[4,5]thieno[2,3-d]pyrimidin-2-ylsulfanyl]acetic acid hydrazide], the figure is 0.2 µM. With `NNC(=O)CSc1nc2sc3c(c2c(=O)n1-c1cccc(F)c1)C(Cc1ccccc1)CCC3` (stereo not drawn) [986-45, [5-Benzyl-3-(3-fluorophenyl)-4-oxo-3,4,5,6,7,8-hexahydrobenzo[4,5]thieno[2,3-d]pyrimidin-2-ylsulfanyl]acetic acid hydrazide], the half-inhibitory concentration (IC50) in assay [2] was 2.3 µM. On to `CC(C)(C)OC(=O)N1CCc2c(sc3nc(SCC(=O)NN)n(-c4cccc(F)c4)c(=O)c23)C1` [986-46, 3-(3-Fluorophenyl)-2-hydrazinocarbonylmethylsulfanyl-4-oxo-3,5,6,8-tetrahydro-4H-9-thia-1,3,7-triazafluorene-7-carboxylic acid tert-butyl ester], for which, in assay [1] (setting [3]), the IC50 amounted to 1.1 µM. With `NNC(=O)CSc1nc2sc3c(c2c(=O)n1-c1cccc(F)c1)CCNC3` [986-47, [3-(3-Fluorophenyl)-4-oxo-3,4,5,6,7,8-hexahydro-9-thia-1,3,7-triazafluoren-2-ylsulfanyl]acetic acid hydrazide], the IC50 in assay [1] (setting [3]) is 7.1 µM. On the same count and under the same terms, in the case of `CN1CCc2c(sc3nc(SCC(=O)NN)n(-c4cccc(F)c4)c(=O)c23)C1` [986-48, [3-(3-Fluorophenyl)-7-methyl-4-oxo-3,4,5,6,7,8-hexahydro-9-thia-1,3,7-triazafluoren-2-ylsulfanyl]acetic acid hydrazide] it was 0.53 µM.
